Measured values: patent US11352334B2, “3-(5-chloro-2-oxobenzo[d]oxazol-3(2H)-yl) propanoic acid derivatives as KMO inhibitors” (THE UNIVERSITY COURT OF THE UNIVERSITY OF EDINBURGH, priority 2013, dated 2022)

Target: T1, human KMO (Homo sapiens, UniProt O15229)
T1 construct: Full length human KMO was amplified by PCR from pcDNA5/FRT/V5-His-TOPO/hKMO; made in house; host or cells: Spodoptera frugiperda Sf9 cells (baculovirus); purified membrane fraction used
Assay: KMO MS Rapidfire assay
Format: biochemical
Settings: human KMO-membranes from Sf9 cells, 10 μM Kynurenine, 200 μM NADPH, 3-HK detected by MS
Procedure: pFastbac1 GST-KMO was transposed into the baculovirus genome using the BAC-to-BAC technology (Invitrogen) and bacmid DNA was prepared and transfected into Spodoptera frugiperda (Sf9) cells using Cellfectin II (Invitrogen).
Cells were harvested after 48 hours and disrupted by blending in 50 mM Hepes, pH 7.4, 1 mM EDTA buffer containing protease inhibitors. A low speed spin (400 g) was used to remove cell debris, followed by a high speed spin (75 000 g) to pellet the membranes. The membranes were purified in a discontinuous sucrose density gradient by re-suspending in 10% (w/v) sucrose and layering over 40% (w/v) sucrose, both in the above buffer. This was centrifuged at 150 000 g and the purified membranes were taken from the interface, collected by centrifugation at 100 000 g, resuspended in buffer and aliquoted for storage at −80° C.
11 point, 3-fold serial dilutions of test compounds were prepared in DMSO and 100 nL of these solutions were dispensed into 384-well V-base polypropylene plates (Greiner Bio-one, Stonehouse, UK) using an Echo 555 acoustic dispenser (Labcyte, Sunnyvale, Calif.). This gave a final assay concentration range between 100 μM and 1.7 nM in 10 μL final assay volume (see below). 100 nL DMSO was dispensed into columns 6 and 18 for high and low controls, respectively, with prior inactivation of the enzyme in column 18 by pre-dispense of 30 μL of 0.5% (v/v) TFA. […]

T1 sequence (O15229 whole entry): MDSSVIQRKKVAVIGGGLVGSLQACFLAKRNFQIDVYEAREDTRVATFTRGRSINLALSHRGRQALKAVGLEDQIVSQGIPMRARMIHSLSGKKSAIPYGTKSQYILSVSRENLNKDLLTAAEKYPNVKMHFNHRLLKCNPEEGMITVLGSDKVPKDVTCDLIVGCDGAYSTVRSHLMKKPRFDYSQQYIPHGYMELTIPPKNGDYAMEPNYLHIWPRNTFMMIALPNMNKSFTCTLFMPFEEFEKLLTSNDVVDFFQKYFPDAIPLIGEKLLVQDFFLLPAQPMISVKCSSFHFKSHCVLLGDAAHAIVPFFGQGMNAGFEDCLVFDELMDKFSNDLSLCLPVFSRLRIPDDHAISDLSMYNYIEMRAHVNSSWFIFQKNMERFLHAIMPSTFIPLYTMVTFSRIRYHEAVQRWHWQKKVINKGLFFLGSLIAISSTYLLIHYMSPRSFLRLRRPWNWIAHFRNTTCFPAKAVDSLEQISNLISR

In the case of `Cc1cc2oc(=O)n(CCC(=O)O)c2cc1Cl` [Example 1, 3-(5-Chloro-6-methyl-2-oxobenzo[d]oxazol-3(2H)-yl)propanoic Acid], the “median pIC50” value was 7.9.
